From patent US20070275366A1, “Regulation of Sperm Function” (priority 2003, published 2007)

Tests used:
[1] = test system: sperm from volunteers and patients attending fertility clinics; details: background statement, cited from earlier work
[2] = test system: frozen-thawed spermatozoa (Bull semen samples); assay: Sperm motility by microscopy on heated stage (percentage of motile spermatozoa with linear progressive movement); assay type: cell-based; details: for increase in sperm motility compared to fibronectin alone / increase in sperm motility compared to the RGD plus fibronectin sample: Angiotensin II 10^−9 moles/L added to fibronectin plus RGDS sample
Method: Each sperm sample was packed and frozen in 0.25 ml plastic straws. The frozen spermatozoa straw (0.25 ml) was rapidly thawed by plunging it into a 37° C. water bath. When the sample was thawed, the straw was dried with a tissue, kept horizontal and cut both ends into a pre-warmed TALP medium.
Spermatozoa were washed twice by TALP medium and centrifugation at 600×g for 10 minutes, then re-suspended with TALP pre-warmed to 37° C. The motility of the frozen-thawed spermatozoa was assessed at 37° C. using thermal plates. Sperm motility and morphology was estimated by microscopical observation on a warm 37° C. stage. Semen (10 μl) was covered by a cover glass (18 mm×18 mm) and at least 5 microscopic fields were examined. Motility was expressed as the percentage of motile spermatozoa with linear progressive movement in the sample (see Vinson, G. P., Puddefoot, J. R., Ho, M. M., Barker, S., Mehta, J., Saridogan, E. and Djahanbakhch, O. (1995). “Type 1 angiotensin II (AT1) receptors in sperm”, Journal Of Endocrinology, 144, 369-378). The prepared sperm sample were incubated with additives at 37° C. in a water bath as described in each example, and assayed for motility as before.
All incubations were carried out at 37° C., using water bath and heated stage. Semen samples (10 μl) were applied to preheated (37° C.) slides and placed on the microscope heated stage and examined. The number of motile sperm were counted in the control sample at zero time, and in the treated samples after the incubation times indicated.

bull spermatozoa = assay: Chlortetracycline (CTC) fluorescence assay of capacitation state; assay type: cell-based; details: Example 6
Text: An alternative method of assessing capacitation is by using the CTC assay (DasGupta S, Mills C L, Fraser L R. Ca(2+)-related changes in the capacitation state of human spermatozoa assessed by a chlortetracycline fluorescence assay. J Reprod Fertil. 1993 September; 99(1):135-43.; Fraser L R, Herod J E. Expression of capacitation-dependent changes in chlortetracycline fluorescence patterns in mouse spermatozoa requires a suitable glycolysable substrate. J Reprod Fertil. 1990 March; 88(2):611-21). In this method, used in Example 6 below, patterns of staining distinguish non-capacitated, capacitated and acrosome reacted sperm. Chlortetracycline (CTC) solution: CTC (750 μM CTC in Tris (20 mM)-NaCl (130 mM), DL-cysteine (5 mM), buffer (20 mM Tris/130 mM NaCl, pH 7.8). Spermatozoa samples were obtained from healthy bulls (Semex, UK). All semen samples used in this study had been frozen and thawed. Each sample was packed in 0.25 ml plastic straws. The frozen spermatozoa straw (0.25 ml) was rapidly thawed by plunging it into a 37° C. water bath. When the sample was thawed, the straw was dried with a tissue, kept horizontal and cut both ends into a pre-warmed TALP medium. Spermatozoa were washed twice by TALP medium and centrifugation at 600 g for 10 minutes, then re-suspended with TALP pre-warmed to 37° C. Spermatozoa were incubated without additives, or with either angiotensin II (10^−9 moles per litre), fibronectin (5-50 μg/ml), or with both. Treated samples (45 μl) were aliquoted into foil wrapped eppendorf tubes with CTC solution (45 μl) and fixed with 12.5% paraformaldehyde, prior to viewing by […]. Three patterns of chlortetracycline fluorescent staining may be observed on bull spermatozoa: F (uncapacitated)-pattern, bright fluorescence was detected over the whole region of the sperm head; B (capacitated)-pattern, fluorescence was detected on the sperm head but not on the postacrosomal region; AR (acrosome-reacted)-pattern, weak fluorescence was observed over the sperm head, and a bright band was sometimes observed in the equatorial region.

sperm = assay: Sperm viability, carboxyfluorescein diacetate / propidium iodide live-dead stain; assay type: cell-based; details: Example 7; fibronectin 5 μg/ml, stored at room temperature, after 3 days; untreated control 75% to 18%
Method: Stock solutions: carboxyfluorescein diacetate (0.46 mg/ml in dimethyl sulphoxide), propidium iodide (0.5 mg/ml isotonic saline), formaldehyde (10 μl formalin to 150 μl distilled water). Fluorescence stain: 50 μl carboxyfluorescein and 50 μl of propidium iodide to 2 ml sperm extender, plus 100 μl formaldehyde.
Semen were diluted with stain (1:1) dilution and incubated at room temperature […] for 15 min. Samples washed with extender, and examined for live and dead sperm.

[3] = Example 3, fibronectin 2 μg/l added to sperm pre-incubated with RGDS, incubation of 5-10 minutes

CCCCc1nc(Cl)c(CO)n1Cc1ccc(-c2ccccc2-c2nn[nH]n2)cc1 [losartan]
effect on the action of angiotensin II on the percentage of motile sperm ([1]; specific AT1 receptor antagonist): inhibits the action of angiotensin II on the percentage of motile sperm

Angiotensin II (DRVYIHPF; Angiotensin-2; UniProt P01019 25-32, looked up) [peptide used as capacitating agent]
increase in sperm motility compared to fibronectin alone ([2]; Example 1): 71% | increase in sperm motility compared to the RGD plus fibronectin sample ([2]; Example 1): 62% | increase in sperm motility compared to fibronectin alone ([2]; Example 1, 10 minutes): 43% | increase in sperm motility compared to the RGD plus fibronectin sample ([2]; Example 1, 10 minutes): 34% | increase in sperm motility compared to fibronectin alone ([2]; Example 1, 20 minutes): 64% | increase in sperm motility compared to the RGD plus fibronectin sample ([2]; Example 1, 20 minutes): 55% | sperm motility ([2]; Example 2, Angiotensin II 10^−9 moles/L added to fibronectin (2 μg/l) sample, 10 minutes): 64% | sperm motility ([2]; Example 2, Angiotensin II 10^−9 moles/L added to fibronectin (2 μg/l) sample, 20 minutes): 62% | sperm motility ([2]; Example 2, Angiotensin II 10^−9 moles/L added to fibronectin (2 μg/l) sample, 3040 minutes): 62% | sperm motility ([2]; Example 3, Angiotensin II 10^−9 moles/L added to fibronectin+RGDS sample, 10 minutes): 43% | sperm motility ([2]; Example 3, Angiotensin II 10^−9 moles/L added to fibronectin+RGDS sample, 20 minutes): 54% | sperm motility ([2]; Example 3, Angiotensin II 10^−9 moles/L added to fibronectin+RGDS sample, 3040 minutes): 54% | change in sperm motility ([2]; Example 4, Angiotensin II 10^−9 moles/L added to vitronectin sample, 5 to 35 minutes): significant increase | change in sperm motility ([2]; Example 5, Angiotensin II 10^−9 moles/L added to laminin sample, 10 to 40 minutes): significant increase | effect on percentage of motile sperm and linear velocity [1]: may increase both the percentage of motile sperm and their linear velocity | capacitated sperm (B pattern) (bull spermatozoa; angiotensin II only (10^−9 moles per litre), 60 min incubation): 45% | uncapacitated sperm (F pattern) (bull spermatozoa; angiotensin II only (10^−9 moles per litre), 60 min incubation, control about 60%, 55% by 30 min): ~18%

Arg-Gly-Asp-Ser (RGDS; printed: Arg-Gly-Asp-Ser) [commercially available tetrapeptide used as a source of RGD]
decrease in sperm motility ([2]; Example 3, pre-incubation with RGDS 5×10^6 moles/L for 5 min, control 62% at time zero): 19%

fibronectin
sperm remaining viable (living sperm) (sperm): 48% | sperm motility ([2]; Example 1, fibronectin 2 μg/l, incubation of 5-10 minutes, 37° C., control 70% at time zero): 14% | sperm motility ([2]; Example 2, fibronectin 2 μg/l, incubation of 5-10 minutes, control 79% at time zero): 8% | decrease of motility compared to the RGD treated sample [2, 3]: 28% | decrease of motility compared to the control [2, 3]: 47% | patterns of sperm staining (CTC) (bull spermatozoa; fibronectin 5 μg/ml): very similar to the untreated controls

laminin: extracellular matrix protein (250 μg/ml, Sigma)
change in total sperm motility ([2]; Example 5, laminin 2 μg/l, 10 min, 37° C.): significant decrease

B1: vitronectin: extracellular matrix protein (250 μg/ml, Sigma) (protein, UniProt P04004 20-478, looked up)
Vitronectin: DQESCKGRCTEGFNVDKKCQCDELCSYYQSCCTDYTAECKPQVTRGDVFTMPEDEYTVYDDGEEKNNATVHEQVGGPSLTSDLQAQSKGNPEQTPVLKPEEEAPAPEVGASKPEGIDSRPETLHPGRPQPPAEEELCSGKPFDAFTDLKNGSLFAFRGQYCYELDEKAVRPGYPKLIRDVWGIEGPIDAAFTRINCQGKTYLFKGSQYWRFEDGVLDPDYPRNISDGFDGIPDNVDAALALPAHSYSGRERVYFFKGKQYWEYQFQHQPSQEECEGSSLSAVFEHFAMMQRDSWEDIFELLFWGRTSAGTRQPQFISRDWHGVPGQVDAAMAGRIYISGMAPRPSLAKKQRFRHRNRKGYRSQRGHSRGRNQNSRRPSRATWLSLFSSEESNLGANNYDDYRMDWLVPATCEPIQSVFFFSGDKYYRVNLRTRRVDTVDPPYPRSIAQYWLGCPAPGHL
change in total sperm motility ([2]; Example 4, vitronectin 2 μg/l, 5 minutes, 37° C.): highly significant decrease
